{"source": "patent US11576913B2", "about": "(priority 2018, dated 2023)", "key": {"[1]": {"tested_on": "subjects suffering from the Insomnia Disorder adult insomnia", "assay_type": "in vivo, human", "procedure": "Following the evening-time dosing with study drug, subjects underwent eight hours of continuous PSG recording. Next-day residual effects were assessed by the DSST and the KSS evaluation, collected in that order, starting at approximately 30 minutes after “lights-on.” All tests were administered in the clinical unit, beginning 30 minutes after lights-on and periodically thereafter for approximately 16 hours post-lights-off, following completion of PSG recording. Each subject also completed a post-sleep questionnaire once after lights-on so that subjective impressions could be assessed about the “quality” and “quantity” of their sleep. Before the second night dosing in each dosing period, subjects were evaluated for any residual sleepiness. […] Subjects remained in the clinic until residual symptoms were minimized.\nThe well-known DSST is a paper-and-pencil neuropsychological test that explores attention and psychomotor speed and was therefore useful as an indication of next day residual effects, if any. When administered in multiple sessions over time, the DSST provided an objective indication of the change in performance.\nEach subject was asked to match symbols with their corresponding digit as follows. […] The subject filled in as many squares as possible during the allowed 90 second time limit. The score was determined from the number of correct symbols. An untimed 7 blank square practice opportunity was provided before the 90 second time period began. Six different versions of the test were used to avoid learning effects that could occur if only a single version was used.\nThe DSST was administered starting approximately ½ hour after lights-on (i.e., about 9 hours post-dosing) and at about 1, 3, 4, 5, and 7 hours thereafter following completion of PSG recordings after each night of the baseline visit (Visit 2) and after each night of Dosing Periods 1-5.\nThe DSST results shown, other than for the baseline, are the mean results obtained from the DSST scores following all nights of Dosing Periods 1-5 for the indicated dose. The DSST results for the baseline are the mean results obtained following the first and second nights of the baseline visit. Note that for clarity of display purposes, in FIG. 6 many of the test results at each time period, e.g., at approximately ½ hour after lights-on/9 hours post-dosing, were staggered arbitrarily away from the actual time when the test was conducted."}, "clinical [2]": {"experiment": "clinical", "assay_type": "in vivo, human", "procedure": "The highest doses tested in healthy subjects were for a 30-mg single dose and a 10-mg multiple dose (once daily nighttime dose for 14 days). The highest dose tested in subjects with insomnia was 10 mg."}, "clinical [3]": {"experiment": "clinical", "assay_type": "in vivo, human", "settings": "for Fe, Mean (CV %): unchanged in urine; for CLr, Mean / Tmax / half-life / AUC / CL renal / Cmax: human, in vivo; for half-life: read-out: T1/2, Mean (CV %) (converted); for AUC / Cmax: Mean (CV %); for CL renal: CLr, Mean", "description": "This study was designed to evaluate the safety and pharmacokinetic (“PK”) interactions between Compound (1C) and alcohol in healthy subjects. […] The study was designed as a single-site, randomized, single-dose, double-blinded, placebo-controlled crossover study, and 46 subjects completed treatment as part of the study.\nThe dose of alcohol at 0.7 g/kg was consistent with the NIAAA definition of binge drinking, which can lead to blood alcohol concentration of approximately 0.08 g/dL. In the United States this is generally considered the level at which a person is legally impaired. In addition, such dose level has been studied in previously completed relevant alcohol interaction study in which the safety and tolerability were established in a similar population (Hong Sun et al. “Psychomotor effects, pharmacokinetics and safety of the orexin receptor antagonist suvorexant administered in combination with alcohol in healthy subjects.” Journal of Psychopharmacology 2015, Vol. 29(11) 1159-1169).\nBriefly, blinded alcoholic beverage or placebo beverage was consumed over a 20- to 30-minute period. The beverage was divided into 3 parts, with approximately ⅓ administered (consumed to completion by subject at their own pace) every 10 minutes, […], in order to control for drinking rate.\nSubjects swallowed Compound (1C) with the alcoholic beverage, with small sips of water as needed if the subject could not drink the alcohol quickly enough to consume the alcohol. […] A mouthwash with water was provided before and at the end of dosing. A mouth check was performed to verify that the Compound (1C) doses administered are swallowed. Vital signs and oxygen saturation, SpO2, (FIG. 26) were collected for evaluation by the investigator.\nAUCt Area under the plasma concentration-time curve from hour 0 to the last measurable plasma concentration, calculated by the linear trapezoidal method.\nAUCinf Area under the plasma concentration-time curve extrapolated to infinity:\nWhere Ct is the last measurable plasma concentration and […] is the apparent terminal phase rate constant;\nCmax Maximum observed plasma concentration\nTmax Time to maximum plasma concentration\nT1/2 Apparent terminal phase half-life: T1/2=(ln2)/λz"}}, "note": "Read-outs that look alike come from different tables or passages of the source."}
{"smiles": "O=C(O)c1nc2ccccc2n([C@H]2C[C@H]3CCC[C@@H](C2)N3C2CC3CCCC(C3)C2)c1=O", "note": "(stereo partly drawn) [Compound (1C)]", "values": [{"measurement": "next day residual effects by mean DSST results vs placebo", "setting": "[1]; 0.5 mg, about 9 to about 16 hours post-dosing", "result": "no next day residual effects"}, {"measurement": "next day residual effects by mean DSST results vs placebo", "setting": "[1]; 1.0 mg, about 9 to about 16 hours post-dosing", "result": "no next day residual effects"}, {"measurement": "next day residual effects by mean DSST results vs placebo", "setting": "[1]; 3.0 mg, deviations at about 9, 10, 12, and 13 hours", "result": "minimal next day residual effects"}, {"measurement": "next day residual effects by mean DSST results vs placebo", "setting": "[1]; 6.0 mg, each of the testing times", "result": "some next day residual effects"}, {"measurement": "major elimination pathway", "setting": "clinical [2]; human", "result": "Renal elimination"}, {"measurement": "major metabolite in human plasma", "setting": "clinical [2]; human plasma", "result": "No major metabolite has been identified"}, {"measurement": "renal clearance (adjusted by plasma protein binding) compared with glomerular filtration rate", "setting": "clinical [2]; human, in vivo", "result": "higher than the human glomerular filtration rate"}, {"measurement": "Tmax", "setting": "clinical [2]; human, in vivo, po", "result": "~1.5", "unit": "h"}, {"measurement": "half-life", "setting": "clinical [2]; human, in vivo, po", "result": "2 to 3", "unit": "h"}, {"measurement": "dose proportionality of exposure", "setting": "clinical [2]; once a day dosing for 2 weeks", "result": "approximately dose-proportional exposure up to 10 mg"}, {"measurement": "dose proportionality of exposure", "setting": "clinical [2]; single oral administration", "result": "approximately dose-proportional exposure up to 10 mg"}, {"measurement": "unchanged drug recovered in urine", "setting": "clinical [2]; within 48 hours", "result": "80-100%"}, {"measurement": "Fe, Mean (CV %)", "setting": "clinical [3]; 2 mg + EtOH (0.7 g/kg)", "result": "84 (33) %"}, {"measurement": "Urine Fe, Mean", "setting": "clinical [3]; 2 mg Alone (N = 48)", "result": 80.7, "unit": "%"}, {"measurement": "Fe, Mean (CV %)", "setting": "clinical [3]; 2 mg alone", "result": "81 (12) %"}, {"measurement": "PK profile of ethanol on co-administration of Compound (1C)", "setting": "clinical [3]; 2 mg or 6 mg with ethanol vs ethanol with placebo, FIG. 24", "result": "not affected"}, {"measurement": "Urine Fe, Mean", "setting": "clinical [3]; 2 mg with Alcohol (N = 46)", "result": 83.6, "unit": "%"}, {"measurement": "Fe, Mean (CV %)", "setting": "clinical [3]; 6 mg + EtOH (0.7 g/kg)", "result": "80 (20) %"}, {"measurement": "Urine Fe, Mean", "setting": "clinical [3]; 6 mg Alone (N = 47)", "result": 80.8, "unit": "%"}, {"measurement": "Fe, Mean (CV %)", "setting": "clinical [3]; 6 mg alone", "result": "81 (10) %"}, {"measurement": "Urine Fe, Mean", "setting": "clinical [3]; 6 mg with Alcohol (N = 48)", "result": 79.6, "unit": "%"}, {"measurement": "effect of alcohol on the PK profile of Compound (1C)", "setting": "clinical [3]; 2 and 6 mg with 0.7 g/kg ethanol", "result": "does not alter the PK profile"}, {"measurement": "CLr, Mean", "setting": "clinical [3]; 2 mg", "result": 12.7, "unit": "L/h"}, {"measurement": "Tmax", "setting": "clinical [3]; 2 mg", "result": 1.7, "unit": "h"}, {"measurement": "half-life", "setting": "clinical [3]; 2 mg + EtOH (0.7 g/kg)", "result": 3.9, "unit": "h"}, {"measurement": "half-life", "setting": "clinical [3]; 2 mg, 2 mg alone", "result": 4, "unit": "h"}, {"measurement": "AUC", "setting": "clinical [3]; 2 mg", "result": 130, "unit": "ng·h/mL"}, {"measurement": "CL renal", "setting": "clinical [3]; 2 mg", "result": 210, "unit": "mL/min"}, {"measurement": "Cmax", "setting": "clinical [3]; 2 mg", "result": 28.2, "unit": "ng/mL"}, {"measurement": "CLr, Mean", "setting": "clinical [3]; 6 mg", "result": 12.3, "unit": "L/h"}, {"measurement": "Tmax", "setting": "clinical [3]; 6 mg", "result": 1.9, "unit": "h"}, {"measurement": "half-life", "setting": "clinical [3]; 6 mg + EtOH (0.7 g/kg)", "result": 4.5, "unit": "h"}, {"measurement": "half-life", "setting": "clinical [3]; 6 mg, 6 mg alone", "result": 4.5, "unit": "h"}, {"measurement": "AUC", "setting": "clinical [3]; 6 mg", "result": 402, "unit": "ng·h/mL"}, {"measurement": "CL renal", "setting": "clinical [3]; 6 mg", "result": 198, "unit": "mL/min"}, {"measurement": "Cmax", "setting": "clinical [3]; 6 mg", "result": 78.3, "unit": "ng/mL"}, {"measurement": "Mean % Dose Excreted Unchanged", "setting": "Cohort 1, 3 mg", "result": 89, "unit": "%"}, {"measurement": "Mean Total Amount Excreted Unchanged", "setting": "Cohort 1, 3 mg", "result": 2.66, "unit": "mg"}, {"measurement": "Mean % Dose Excreted Unchanged", "setting": "Cohort 2, 10 mg", "result": 70, "unit": "%"}, {"measurement": "Mean Total Amount Excreted Unchanged", "setting": "Cohort 2, 10 mg", "result": 6.95, "unit": "mg"}, {"measurement": "Mean % Dose Excreted Unchanged", "setting": "Cohort 3, 30 mg", "result": 28, "unit": "%"}, {"measurement": "Mean Total Amount Excreted Unchanged", "setting": "Cohort 3, 30 mg", "result": 8.37, "unit": "mg"}]}
